Experimental data as given in patent US5935829A, “Mutation assays involving blood cells that metabolize toxic substances” (priority 1992, dated 1999).
Read-outs that look alike come from different tables or passages of the source.

Assays:
in vitro [1] = conditions: human, ahh-1 cells, RELATIVE SURVIVAL; for viability at 48 h, 10 µM: 10 μM × 48 hours; for viability at 48 h, 20 µM: 20 μM × 48 hours
[2] = test system: AHH activity of 6-TG resistant AHH-1 clones; test: AHH activity induced by BaP in AHH-1 cells resistant to 6-TG; type: cell-based, human; conditions: 10 μM BaP, 24 hours
Experimental: 3-hydroxy BaP per 10^6 cells per minute. The quantity of 3-hydroxy BaP was measured by fluorescent intensity activated by a light wavelength of 396 nm and measured at 522 nm using a spectrofluorimeter (Farrand Model Mk-1, Valhalla, N.Y.). This could be induced to about 0.3 pmole of 3-hydroxy BaP per 10^6 cells per minute.
6-TG resistant clones were characterized for AHH activity by measuring the rate of production of 3-OH benzopyrene, a fluorescent metabolite of BaP which is created by AHH activity. […].

G6-A5 cells = test: in vitro; type: cell-based, human; conditions: several subclones, exposed directly
Source text: (§1) Following the benzo(ghi)perylene selection and after plating in microtitre plates, colonies were isolated and analyzed for MFO activity and PE. […] Several of these subclones were used to detect the mutagenic activity of benzo(a)pyrene, a chemical known to require oxidative metabolism for mutagenicity.

in vitro [3] = type: cell-based, human; conditions: human, g6-a5 cells, G6-A5 clone, read-out: Relative Survival
Source text: as §1

AHH-1 cells [4] = test system: AHH-1 cells
[5] = test system: AHH activity of AHH-1 cells; type: cell-based, human
Experimental: The quantity of 3-hydroxy BaP was measured by fluorescent intensity activated by a light wavelength of 396 nm and measured at 522 nm using a spectrofluorimeter (Farrand Model Mk-1, Valhalla, N.Y.).
After growth of the cells in culture medium with gentamycin and kanamycin, the cells were plated in microtiter plates at a density of about 0.2 cells per well. Colonies were isolated and characterized for BaP-induced growth inhibition. A total of 47 colonies were isolated and contacted with 40 uM BaP. In its normal state, BaP is not highly cytotoxic or mutagenic; however, if metabolized by oxidative activity into one or more epoxides or phenols, the metabolites tend to be toxic and mutagenic.
6-TG resistant clones were characterized for AHH activity by measuring the rate of production of 3-OH benzopyrene, a fluorescent metabolite of BaP which is created by AHH activity.

6-TG^r AHH-1 cells = test: in vitro; type: cell-based, human; conditions: varying concentrations of ICR-191
Source text: (§2) Preferential survival during toxic treatment tested by exposing two sets of cells to varying concentrations of ICR-191.

in vitro [6] = type: cell-based, human; conditions: human, 6-tg resistant ahh-1 cells, 6-TG^r AHH-1 cells, read-out: Relative Survival
Source text: as §2

in vitro [7] = type: cell-based; conditions: human, ahh-1 cells, read-out: Relative Survival
Source text: as §2

AHH-1 cells [8] = test: Phenotypic expression of ICR-191 induced mutation; type: cell-based, human
Experimental: AHH-1 cell cultures were contacted with ICR-191 (Polysciences Inc, Warrington Pa.) which is a known mutagen comprising an acridine mustard derivative, at varying concentrations ranging up to 1.0 μM, for 24 hours. The cultures were resuspended in growth medium and allowed to grow. At different times after treatment, the cells were contacted with 6-TG to determine the mutant fraction.

human cells = conditions: literature ref. 15; cited from earlier work
[9] = 0.3 μM × 24 hours, induction BP

Compound: c1ccc2c(c1)cc1ccc3cccc4ccc2c1c34 [BaP, benzo(a)pyrene]
- viability at 24 h, 0.3 µM (in vitro [1]; [9]): 87%
- viability at 24 h, 1 µM (in vitro [1]; 1 μM × 24 hours, induction BP): 102%
- viability at 24 h, 3 µM (in vitro [1]; 3 μM × 24 hours, induction BP): 74%
- viability at 24 h, 10 µM (in vitro [1]; 10 μM × 24 hours, induction BP): 82%
- viability at 24 h, 30 µM (in vitro [1]; 30 μM × 24 hours, induction BP): 75%
- AHH Activity Induced by B(α)P ([2]; clone BP-1): 1.64 pmole 3OHBP/10^6 cells/minute
- AHH Activity Induced by B(α)P ([2]; clone BP-2): 2.36 pmole 3OHBP/10^6 cells/minute
- AHH Activity Induced by B(α)P ([2]; clone BP-3): 1.88 pmole 3OHBP/10^6 cells/minute
- AHH Activity Induced by B(α)P ([2]; clone BP-4): 2.76 pmole 3OHBP/10^6 cells/minute
- AHH Activity Induced by B(α)P ([2]; clone BP-5): 0.72 pmole 3OHBP/10^6 cells/minute
- AHH Activity Induced by B(α)P ([2]; clone BP-6): 1.88 pmole 3OHBP/10^6 cells/minute
- AHH Activity Induced by B(α)P ([2]; clone BP-7): 1.84 pmole 3OHBP/10^6 cells/minute
- AHH Activity Induced by B(α)P ([2]; mean TG^R clones): 1.87 pmole 3OHBP/10^6 cells/minute
- mutation of G6-series subclones to a statistically significant degree (G6-A5 cells): mutated to a statistically significant degree
- viability at 24 h (in vitro [3]; 0.1 μg/ml): 37%
- viability at 24 h (in vitro [3]; 0.2 μg/ml, 24 hour treatment): 41%
- MUTANT FRACTION × 10^6, MEAN ± STD.DEV. (AHH-1 cells [4]; [9]): 3.4 ± 0.5 × 10^6
- MUTANT FRACTION × 10^6, MEAN ± STD.DEV. (AHH-1 cells [4]; 1 μM × 24 hours, induction BP): 4.9 ± 0.9 × 10^6
- MUTANT FRACTION × 10^6, MEAN ± STD.DEV. (AHH-1 cells [4]; 3 μM × 24 hours, induction BP): 6.1 ± 1 × 10^6
- MUTANT FRACTION × 10^6, MEAN ± STD.DEV. (AHH-1 cells [4]; 10 μM × 24 hours, induction BP): 12.7 ± 1.5 × 10^6
- MUTANT FRACTION × 10^6, MEAN ± STD.DEV. (AHH-1 cells [4]; 30 μM × 24 hours, induction BP): 18.2 ± 2.1 × 10^6
- AHH Activity Induced by B(α)P [5]: 2.04 pmole 3OHBP/10^6 cells/minute
- induction of AHH activity [5]: inducers

Compound: COc1ccc2nc3cc(Cl)ccc3c(NCCCNCCCl)c2c1 [ICR-191]
- viability at 24 h, 0.63 µM (in vitro [1]; 0.63 μM × 24 hours): 65%
- viability at 24 h, 1.25 µM (in vitro [1]; 1.25 μM × 24 hours): 48%
- viability at 24 h, 2.5 µM (in vitro [1]; 2.5 μM × 24 hours): 13%
- difference in survival rate between non-resistant and 6-TG resistant AHH-1 cells (6-TG^r AHH-1 cells): did not reach the level of statistical significance
- viability at 24 h (in vitro [6]; 0.25 μg/ml at 24 hrs): 48%
- viability at 24 h (in vitro [6]; 0.5 μg/ml at 24 hrs): 20%
- viability at 24 h (in vitro [6]; 1.0 μg/ml at 24 hrs): 14%
- MUTANT FRACTION × 10^6, MEAN ± STD.DEV. (AHH-1 cells [4]; 0.63 μM × 24 hours): 62 ± 11 × 10^6
- MUTANT FRACTION × 10^6, MEAN ± STD.DEV. (AHH-1 cells [4]; 1.25 μM × 24 hours): 116 ± 17 × 10^6
- MUTANT FRACTION × 10^6, MEAN ± STD.DEV. (AHH-1 cells [4]; 2.5 μM × 24 hours): 147 ± 28 × 10^6
- viability at 24 h (in vitro [7]; 0.25 μg/ml at 24 hrs): 65%
- viability at 24 h (in vitro [7]; 0.5 μg/ml at 24 hrs): 48%
- viability at 24 h (in vitro [7]; 1.0 μg/ml at 24 hrs): 13%
- time to full expression of induced mutation (AHH-1 cells [8]; ICR-191 up to 1.0 μM, 24 hours): ≤ 6 days
- mutant fraction stability after full expression (AHH-1 cells [8]; up to 14 days): remained relatively stable

Compound: c1cc2cccc3c4cccc5cccc(c(c1)c23)c54 [Per, perylene]
- viability at 48 h, 10 µM (in vitro [1]; induction BNF): 89%
- viability at 48 h, 10 µM (in vitro [1]; induction none): 93%
- viability at 48 h, 20 µM (in vitro [1]; induction BNF): 89%
- viability at 48 h, 20 µM (in vitro [1]; induction none): 95%
- mutagenicity for human cells (human cells): not a mutagen for human cells
- MUTANT FRACTION × 10^6, MEAN ± STD.DEV. (AHH-1 cells [4]; 10 μM × 48 hours, induction BNF): 2.7 ± 0.6 × 10^6
- MUTANT FRACTION × 10^6, MEAN ± STD.DEV. (AHH-1 cells [4]; 10 μM × 48 hours, induction none): 3.2 ± 0.75 × 10^6
- MUTANT FRACTION × 10^6, MEAN ± STD.DEV. (AHH-1 cells [4]; 20 μM × 48 hours, induction BNF): 2.7 ± 0.6 × 10^6
- MUTANT FRACTION × 10^6, MEAN ± STD.DEV. (AHH-1 cells [4]; 20 μM × 48 hours, induction none): 1.9 ± 0.5 × 10^6
